Data published in ChEMBL document CHEMBL3885861, “Open TG-GATES”.

Species on record: Rattus norvegicus
Test: Open TG-GATES - Regimen: Daily Repeat
Type: toxicity, organism-based, Sprague-Dawley
Parameters: regimen Daily Repeat, gender Male, age 6 weeks
Conditions: in vivo, po, route gavage; for Bas / Eos / Fbg / Ht / Lym / MCHC / MCV / Mono / PT / Plat / RBC / Ret / WBC / Neu: tissue Blood; for KIDNEY_L / KIDNEY_R / KIDNEY_TOTAL: tissue Kidney; for ALT / AST / CRE / Ca / DBIL / GLC / IP / K / LDH / Na / PL / RALB / TBIL / TC / TG / TP / gamma-GTP / BUN / Cl: tissue Plasma
[1] = 0 mg/kg, 72 h, dose level Control, time 3 day
[2] = 0 mg/kg, […], dose level Control, time 7 day
[3] = 0 mg/kg, […], dose level Control, time 14 day
[4] = 0 mg/kg, […], dose level Control, time 28 day
[5] = 80 mg/kg, 72 h, dose level Low, time 3 day
[6] = 80 mg/kg, […], dose level Low, time 7 day
[7] = 80 mg/kg, […], dose level Low, time 14 day
[8] = 80 mg/kg, […], dose level Low, time 28 day

COc1ccc([C@@H]2Sc3ccccc3N(CCN(C)C)C(=O)[C@@H]2OC(C)=O)cc1 [DILTIAZEM]
TERMINAL_BW [1]: 215.4 g
Bas [1]: 0.2%
Eos [1]: 1%
Fbg [1]: 262.2 mg/dL
Ht [1]: 41.3%
Lym [1]: 74.6%
MCHC [1]: 32.7%
MCV [1]: 67.4 fL
Mono [1]: 3.4%
PT [1]: 14.3 s
Plat [1]: 126.4 x10_4/uL
RBC [1]: 613.4 x10_4/ul
Ret [1]: 8.9%
WBC [1]: 101.8 x10_2/uL
KIDNEY_L [1]: 1 g
KIDNEY_R [1]: 1 g
KIDNEY_TOTAL [1]: 1.9 g
ALT [1]: 45.8 IU/L
AST [1]: 76.8 IU/L
CRE [1]: 0.2 mg/dL
Ca [1]: 11.2 mg/dL
DBIL [1]: 0.016 mg/dL
GLC [1]: 177.4 mg/dL
IP [1]: 7.6 mg/dL
K [1]: 4 meq/L
LDH [1]: 97 IU/L
Na [1]: 143.8 meq/L
PL [1]: 151.2 mg/dL
RALB [1]: 2.7 g/dL
TBIL [1]: 0.032 mg/dL
TC [1]: 79.6 mg/dL
TG [1]: 86 mg/dL
TP [1]: 5.5 g/dL
gamma-GTP [1]: 1.2 IU/L
TERMINAL_BW [2]: 250.6 g
TERMINAL_BW [3]: 321.8 g
TERMINAL_BW [4]: 411.3 g
Bas [2]: 0%
Eos [2]: 0.8%
Fbg [2]: 297.6 mg/dL
Ht [2]: 41.8%
Lym [2]: 77%
MCHC [2]: 33.1%
MCV [2]: 64.6 fL
Mono [2]: 2.8%
Neu [2]: 18.4%
PT [2]: 14.2 s
Plat [2]: 137.2 x10_4/uL
RBC [2]: 648 x10_4/ul
Ret [2]: 6.7%
WBC [2]: 91.7 x10_2/uL
Bas [3]: 0.4%
Eos [3]: 0.6%
Fbg [3]: 290.8 mg/dL
Ht [3]: 44%
Lym [3]: 82.2%
MCHC [3]: 33.2%
MCV [3]: 62.3 fL
Mono [3]: 2.2%
Neu [3]: 14%
PT [3]: 14.1 s
Plat [3]: 141.2 x10_4/uL
RBC [3]: 706.2 x10_4/ul
Ret [3]: 5.2%
Bas [4]: 0.4%
Eos [4]: 1%
Fbg [4]: 302.8 mg/dL
Ht [4]: 45.8%
Lym [4]: 77%
MCHC [4]: 34.1%
MCV [4]: 57.2 fL
Mono [4]: 2.4%
Neu [4]: 18.8%
PT [4]: 14 s
Plat [4]: 112.6 x10_4/uL
RBC [4]: 801.4 x10_4/ul
Ret [4]: 2.5%
WBC [4]: 99.4 x10_2/uL
KIDNEY_L [2]: 1.1 g
KIDNEY_R [2]: 1 g
KIDNEY_TOTAL [2]: 2.1 g
KIDNEY_L [3]: 1.3 g
KIDNEY_R [3]: 1.3 g
KIDNEY_TOTAL [3]: 2.6 g
KIDNEY_L [4]: 1.5 g
KIDNEY_R [4]: 1.5 g
KIDNEY_TOTAL [4]: 3 g
ALT [2]: 45.4 IU/L
AST [2]: 72.6 IU/L
BUN [2]: 14.8 mg/dL
CRE [2]: 0.2 mg/dL
Ca [2]: 11.1 mg/dL
Cl [2]: 106.4 meq/L
DBIL [2]: 0.014 mg/dL
GLC [2]: 187.8 mg/dL
IP [2]: 7.6 mg/dL
K [2]: 4.3 meq/L
LDH [2]: 84 IU/L
Na [2]: 143.8 meq/L
PL [2]: 162.4 mg/dL
RALB [2]: 2.8 g/dL
TBIL [2]: 0.018 mg/dL
TC [2]: 82.8 mg/dL
TG [2]: 112.6 mg/dL
TP [2]: 5.8 g/dL
gamma-GTP [2]: 1 IU/L
ALT [3]: 39 IU/L
AST [3]: 65.6 IU/L
BUN [3]: 16 mg/dL
CRE [3]: 0.2 mg/dL
Ca [3]: 10.8 mg/dL
Cl [3]: 105.6 meq/L
DBIL [3]: 0.018 mg/dL
GLC [3]: 189 mg/dL
IP [3]: 6.9 mg/dL
K [3]: 4.1 meq/L
LDH [3]: 92.8 IU/L
Na [3]: 144 meq/L
PL [3]: 160.4 mg/dL
RALB [3]: 2.8 g/dL
TBIL [3]: 0.02 mg/dL
TC [3]: 71.2 mg/dL
TG [3]: 180.4 mg/dL
TP [3]: 5.8 g/dL
gamma-GTP [3]: 1 IU/L
ALT [4]: 37.2 IU/L
AST [4]: 66 IU/L
BUN [4]: 16.8 mg/dL
CRE [4]: 0.3 mg/dL
Ca [4]: 11.1 mg/dL
Cl [4]: 108 meq/L
DBIL [4]: 0.014 mg/dL
GLC [4]: 198.8 mg/dL
IP [4]: 6.8 mg/dL
K [4]: 3.7 meq/L
LDH [4]: 63.4 IU/L
Na [4]: 146.4 meq/L
PL [4]: 160.2 mg/dL
RALB [4]: 2.9 g/dL
TBIL [4]: 0.028 mg/dL
TC [4]: 79.4 mg/dL
TG [4]: 125.2 mg/dL
TP [4]: 6.2 g/dL
gamma-GTP [4]: 1.2 IU/L
TERMINAL_BW [5]: 214.1 g
Bas [5]: 0%
Eos [5]: 0.8%
Fbg [5]: 270 mg/dL
Ht [5]: 39.8%
Lym [5]: 72.2%
MCHC [5]: 32.8%
MCV [5]: 64.2 fL
Mono [5]: 2.8%
Neu [5]: 23.2%
PT [5]: 13.8 s
Plat [5]: 118.7 x10_4/uL
RBC [5]: 621.2 x10_4/ul
Ret [5]: 8.5%
KIDNEY_L [5]: 0.9 g
KIDNEY_R [5]: 1 g
KIDNEY_TOTAL [5]: 1.9 g
ALT [5]: 48.6 IU/L
AST [5]: 68.2 IU/L
CRE [5]: 0.2 mg/dL
Ca [5]: 11.1 mg/dL
DBIL [5]: 0.02 mg/dL
GLC [5]: 178 mg/dL
IP [5]: 7.4 mg/dL
K [5]: 4 meq/L
LDH [5]: 78.4 IU/L
Na [5]: 143.8 meq/L
PL [5]: 161.2 mg/dL
RALB [5]: 2.6 g/dL
TBIL [5]: 0.026 mg/dL
TC [5]: 86.4 mg/dL
TG [5]: 128.8 mg/dL
TP [5]: 5.5 g/dL
gamma-GTP [5]: 1.2 IU/L
TERMINAL_BW [6]: 255.5 g
TERMINAL_BW [7]: 315.7 g
TERMINAL_BW [8]: 415.5 g
Bas [6]: 0%
Eos [6]: 1%
Fbg [6]: 295 mg/dL
Ht [6]: 41.2%
Lym [6]: 77.4%
MCHC [6]: 33.2%
MCV [6]: 65.1 fL
Mono [6]: 2.6%
Neu [6]: 17.8%
PT [6]: 14.2 s
Plat [6]: 132.9 x10_4/uL
RBC [6]: 632 x10_4/ul
Ret [6]: 7.5%
WBC [6]: 77.3 x10_2/uL
Bas [7]: 0.4%
Eos [7]: 0.6%
Fbg [7]: 311.2 mg/dL
Ht [7]: 44.4%
Lym [7]: 80.2%
MCHC [7]: 32.9%
MCV [7]: 63.6 fL
Mono [7]: 2.4%
PT [7]: 13.8 s
Plat [7]: 139.6 x10_4/uL
RBC [7]: 698.8 x10_4/ul
Ret [7]: 5%
WBC [7]: 116 x10_2/uL
Bas [8]: 0.2%
Eos [8]: 1.2%
Fbg [8]: 313.4 mg/dL
Ht [8]: 46.4%
Lym [8]: 77.4%
MCHC [8]: 33.9%
MCV [8]: 57.8 fL
Mono [8]: 2.2%
Neu [8]: 18.4%
PT [8]: 14 s
Plat [8]: 111.5 x10_4/uL
RBC [8]: 803.2 x10_4/ul
Ret [8]: 2.5%
KIDNEY_L [6]: 1.1 g
KIDNEY_R [6]: 1.1 g
KIDNEY_TOTAL [6]: 2.2 g
KIDNEY_L [7]: 1.3 g
KIDNEY_R [7]: 1.3 g
KIDNEY_TOTAL [7]: 2.6 g
KIDNEY_L [8]: 1.4 g
KIDNEY_R [8]: 1.4 g
KIDNEY_TOTAL [8]: 2.8 g
ALT [6]: 43.2 IU/L
AST [6]: 68.6 IU/L
BUN [6]: 15.4 mg/dL
CRE [6]: 0.2 mg/dL
Ca [6]: 11.2 mg/dL
DBIL [6]: 0.014 mg/dL
GLC [6]: 192.4 mg/dL
IP [6]: 8.3 mg/dL
K [6]: 4 meq/L
LDH [6]: 83.4 IU/L
Na [6]: 143.6 meq/L
PL [6]: 153.2 mg/dL
RALB [6]: 2.8 g/dL
TBIL [6]: 0.02 mg/dL
TC [6]: 81.2 mg/dL
TG [6]: 109.2 mg/dL
TP [6]: 5.8 g/dL
gamma-GTP [6]: 1 IU/L
ALT [7]: 45 IU/L
AST [7]: 70.4 IU/L
BUN [7]: 16.2 mg/dL
CRE [7]: 0.2 mg/dL
Ca [7]: 10.9 mg/dL
Cl [7]: 105.8 meq/L
DBIL [7]: 0.016 mg/dL
GLC [7]: 184.8 mg/dL
IP [7]: 7 mg/dL
K [7]: 4.2 meq/L
LDH [7]: 99.2 IU/L
Na [7]: 144.6 meq/L
PL [7]: 171.8 mg/dL
RALB [7]: 2.8 g/dL
TBIL [7]: 0.018 mg/dL
TC [7]: 81.8 mg/dL
TG [7]: 169.6 mg/dL
TP [7]: 6 g/dL
gamma-GTP [7]: 1.2 IU/L
ALT [8]: 40.8 IU/L
AST [8]: 70.4 IU/L
BUN [8]: 17.6 mg/dL
CRE [8]: 0.2 mg/dL
Ca [8]: 11.1 mg/dL
Cl [8]: 108.4 meq/L
DBIL [8]: 0.016 mg/dL
GLC [8]: 202.8 mg/dL
IP [8]: 6.6 mg/dL
K [8]: 3.8 meq/L
LDH [8]: 65 IU/L
Na [8]: 146.6 meq/L
PL [8]: 161.8 mg/dL
RALB [8]: 2.9 g/dL
TBIL [8]: 0.016 mg/dL
TC [8]: 79.2 mg/dL
TG [8]: 147.4 mg/dL
TP [8]: 6.5 g/dL
gamma-GTP [8]: 1 IU/L
TERMINAL_BW (240 mg/kg, 72 h, dose level Middle, time 3 day): 216.9 g
